# In patent publication US12391671B2, “Allosteric EGFR inhibitors and methods of use thereof” (Dana-Farber Cancer Institute, Inc., priority 2019, dated 2025):
# Structures can show the parent of a compound that is named as a salt. Where two headings read alike, the source gives them in different places.
# Columns and labels:
# [1] = biological target: EGFR L858R/T790M (Homo sapiens (Human), UniProt P00533, L858R/T790M); experiment: HTRF-based EGFR biochemical assay (L858R/T790M); settings: 100 μM ATP, enzyme 0.02 nM
# Summary of the method: (§1)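 Mutant EGFR (L858R 0.1 nM, L858R/T790M 0.02 nM) preincubated 30 min with compounds at room temperature in HEPES pH 7.0 buffer with Mg2+/Mn2+, then reacted 20 min with 1 μM biotinylated tyrosine kinase peptide and 100 μM ATP. Phosphorylation read by HTRF (Eu-cryptate anti-phosphotyrosine/streptavidin-XL665, 665/620 nm) after EDTA quench.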
# [2] = biological target: EGFR L858R (Homo sapiens (Human), UniProt P00533, L858R); experiment: HTRF-based EGFR biochemical assay (L858R); settings: 100 μM ATP, enzyme 0.1 nM
# Summary of the method: as §1
# [3] = tested on: EGFR mutant L858R/T790M Ba/F3 cells; experiment: Ba/F3 cell proliferation model (Cell Titer Glo), EGFR L858R/T790M; type: cell-based, murine; settings: 72 hours
# Summary of the method: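 Retrovirally transduced Ba/F3 cells exposed 72 h to compound alone or with 1 μg/mL cetuximab, triplicate points, repeated at least three times. Viability by Cell Titer Glo luminescence (ATP); curves fitted by non-linear sigmoidal dose-response regression.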
# [4] = Mus musculus, BaF3, single agent, read-out: Cell IC50 BaF3 EGFR L858R/T790M
# [5] = in combination with 1 μg/mL cetuximab, read-out: Cell IC50 BaF3 EGFR L858R/T790M (+cetux.)
# Sequence of EGFR L858R/T790M (P00533 25-1210 T790M/L858R): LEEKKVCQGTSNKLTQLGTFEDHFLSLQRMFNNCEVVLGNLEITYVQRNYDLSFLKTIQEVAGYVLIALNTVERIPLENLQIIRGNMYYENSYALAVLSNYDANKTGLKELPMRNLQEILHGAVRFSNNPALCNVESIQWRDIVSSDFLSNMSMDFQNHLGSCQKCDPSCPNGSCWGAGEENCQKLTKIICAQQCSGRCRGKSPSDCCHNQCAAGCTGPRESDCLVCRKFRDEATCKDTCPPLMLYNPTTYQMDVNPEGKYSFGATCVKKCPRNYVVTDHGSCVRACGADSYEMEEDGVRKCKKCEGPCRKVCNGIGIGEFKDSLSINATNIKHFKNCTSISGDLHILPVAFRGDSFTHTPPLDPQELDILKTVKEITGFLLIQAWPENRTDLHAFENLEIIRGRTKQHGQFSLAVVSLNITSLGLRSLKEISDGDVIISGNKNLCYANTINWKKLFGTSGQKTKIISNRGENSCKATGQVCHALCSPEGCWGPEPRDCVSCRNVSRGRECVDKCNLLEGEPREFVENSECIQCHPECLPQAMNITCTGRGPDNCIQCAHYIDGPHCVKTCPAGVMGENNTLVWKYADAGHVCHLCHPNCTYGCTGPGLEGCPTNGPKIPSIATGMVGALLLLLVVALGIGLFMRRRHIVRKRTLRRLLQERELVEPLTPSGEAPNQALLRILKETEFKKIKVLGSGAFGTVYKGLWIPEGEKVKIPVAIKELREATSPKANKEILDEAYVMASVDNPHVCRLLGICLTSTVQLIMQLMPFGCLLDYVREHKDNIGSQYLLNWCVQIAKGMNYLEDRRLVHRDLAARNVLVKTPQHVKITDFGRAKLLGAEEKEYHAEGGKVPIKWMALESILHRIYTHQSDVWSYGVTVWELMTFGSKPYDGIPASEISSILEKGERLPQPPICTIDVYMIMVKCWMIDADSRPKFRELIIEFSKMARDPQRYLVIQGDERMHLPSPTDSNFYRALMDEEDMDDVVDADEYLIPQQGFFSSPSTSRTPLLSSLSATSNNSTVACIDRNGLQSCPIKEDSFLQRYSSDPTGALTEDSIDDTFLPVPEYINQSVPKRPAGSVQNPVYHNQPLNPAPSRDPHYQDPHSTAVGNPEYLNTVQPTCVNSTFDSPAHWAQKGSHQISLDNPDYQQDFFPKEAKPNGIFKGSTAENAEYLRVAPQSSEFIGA
# Sequence of EGFR L858R (P00533 25-1210 L858R): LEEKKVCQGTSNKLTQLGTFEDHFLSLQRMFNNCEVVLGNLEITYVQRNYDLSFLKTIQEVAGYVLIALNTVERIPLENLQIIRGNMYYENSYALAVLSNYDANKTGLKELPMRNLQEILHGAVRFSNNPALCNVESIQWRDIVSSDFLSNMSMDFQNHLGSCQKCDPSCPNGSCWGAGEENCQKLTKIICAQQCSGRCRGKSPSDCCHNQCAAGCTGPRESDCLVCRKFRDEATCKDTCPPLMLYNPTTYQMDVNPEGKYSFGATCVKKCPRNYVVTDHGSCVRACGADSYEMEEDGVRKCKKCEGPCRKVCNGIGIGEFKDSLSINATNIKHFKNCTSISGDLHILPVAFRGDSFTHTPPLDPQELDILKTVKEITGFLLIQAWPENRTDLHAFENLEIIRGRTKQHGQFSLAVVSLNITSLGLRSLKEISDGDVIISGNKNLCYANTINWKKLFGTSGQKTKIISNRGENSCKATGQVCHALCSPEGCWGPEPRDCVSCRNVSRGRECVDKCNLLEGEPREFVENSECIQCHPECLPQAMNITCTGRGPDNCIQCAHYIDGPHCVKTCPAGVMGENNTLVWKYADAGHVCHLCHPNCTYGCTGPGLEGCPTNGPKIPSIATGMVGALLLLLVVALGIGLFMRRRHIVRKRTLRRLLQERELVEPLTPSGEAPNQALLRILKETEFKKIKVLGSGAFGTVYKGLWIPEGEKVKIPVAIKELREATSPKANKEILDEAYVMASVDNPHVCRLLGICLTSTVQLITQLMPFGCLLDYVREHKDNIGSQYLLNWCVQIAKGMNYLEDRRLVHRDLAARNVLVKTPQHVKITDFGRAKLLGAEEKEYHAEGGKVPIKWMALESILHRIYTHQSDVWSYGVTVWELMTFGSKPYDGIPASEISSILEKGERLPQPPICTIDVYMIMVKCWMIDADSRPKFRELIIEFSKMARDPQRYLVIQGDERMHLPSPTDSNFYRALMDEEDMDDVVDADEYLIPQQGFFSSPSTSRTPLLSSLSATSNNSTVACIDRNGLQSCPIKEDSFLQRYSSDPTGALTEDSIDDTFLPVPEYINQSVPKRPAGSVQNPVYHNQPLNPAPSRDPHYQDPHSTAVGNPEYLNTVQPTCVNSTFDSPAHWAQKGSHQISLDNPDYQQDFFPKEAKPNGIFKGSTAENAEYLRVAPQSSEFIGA
SMILES,IC50 [1] [nM],IC50 [2] [nM],"IC50 [3, 4] [nM]","IC50 [3, 5] [nM]"
"CN1CCC(c2ccc(-c3ccc4c(c3)C(=O)N(C(c3ccn[nH]3)c3cc(F)ccc3O)C4)cc2)CC1 (stereo not drawn) [Compound 045, 2-[(5-fluoro-2-hydroxy-phenyl)-(1H-pyrazol-3-yl)methyl]-6-[4-(1-methyl-4-piperidyl)phenyl]-isoindolin-1-one]",18,32,3740,1170
"CN1CCC(c2ccc(-c3ccc4c(c3)C(=O)N(C(c3nc5cc(F)ccc5[nH]3)c3cc(F)ccc3O)C4)cc2)CC1 (stereo not drawn) [Compound 046, 2-[(5-fluoro-1H-benzimidazol-2-yl)-(5-fluoro-2-hydroxy-phenyl)-methyl]-6-[4-(1-methyl-4-piperidyl)phenyl]isoindolin-1-one; formic acid]",0.7,4,860,20
"CN1CCC(c2ccc(-c3ccc4c(c3)C(=O)N(C(c3nc5c(Cl)cccc5[nH]3)c3cc(F)ccc3O)C4)cc2)CC1 (stereo not drawn) [Compound 047, 2-[(4-chloro-1H-benzimidazol-2-yl)-(5-fluoro-2-hydroxy-phenyl)-methyl]-6-[4-(1-methyl-4-piperidyl)phenyl]isoindolin-1-one; formic acid]",2,14,1840,80
"COc1ccc2[nH]c(C(c3cc(F)ccc3O)N3Cc4ccc(-c5ccc(C6CCN(C)CC6)cc5)cc4C3=O)nc2c1 (stereo not drawn) [Compound 048, 2-[(5-fluoro-2-hydroxy-phenyl)-(5-methoxy-1H-benzimidazol-2-yl)methyl]-6-[4-(1-methyl-4-piperidyl)phenyl]isoindolin-1-one; formic acid]",4,35,4760,760
"Cc1ccc2[nH]c(C(c3cc(F)ccc3O)N3Cc4ccc(-c5ccc(C6CCN(C)CC6)cc5)cc4C3=O)nc2c1 (stereo not drawn) [Compound 050, 2-[(5-fluoro-2-hydroxy-phenyl)-(5-methyl-1H-benzimidazol-2-yl)methyl]-6-[4-(1-methyl-4-piperidyl)phenyl]isoindolin-1-one; formic acid]",2,21,3850,850
COc1cccc2[nH]c(C(c3cc(F)ccc3O)N3Cc4ccc(-c5ccc(C6CCN(C)CC6)cc5)cc4C3=O)nc12 (stereo not drawn) [Compound 051],1,10,3920,1050
"Cc1cccc2[nH]c(C(c3cc(F)ccc3O)N3Cc4ccc(-c5ccc(C6CCN(C)CC6)cc5)cc4C3=O)nc12 (stereo not drawn) [Compound 052, 2-[(5-fluoro-2-hydroxy-phenyl)-(4-methyl-1H-benzimidazol-2-yl)methyl]-6-[4-(1-methyl-4-piperidyl)phenyl]isoindolin-1-one; formic acid]",2,5,4180,370
"CN1CCC(c2ccc(-c3ccc4c(=O)n(C(c5nc6ccccc6[nH]5)c5cc(F)ccc5O)cc(F)c4c3)cc2)CC1 (stereo not drawn) [Compound 053, 2-[1H-benzimidazol-2-yl-(5-fluoro-2-hydroxy-phenyl)-methyl]-4-fluoro-6-[4-(1-methyl-4-piperidyl)phenyl]isoquinolin-1-one; hydrochloride]",1,6,560,5
"CN1CCC(c2ccc(-c3ccc4c(F)cn(C(c5nc6ccccc6[nH]5)c5cc(F)ccc5O)c(=O)c4c3)cc2)CC1 (stereo not drawn) [Compound 054, 2-[1H-benzimidazol-2-yl-(5-fluoro-2-hydroxy-phenyl)-methyl]-4-fluoro-7-[4-(1-methy-4-piperidyl)phenyl]isoquinolin-1-one]",0.4,2,1060,20
"Cc1c(-c2ccc(C3CCN(C)CC3)cc2)ccc2ncn(C(c3nc4ccccc4[nH]3)c3cc(F)ccc3O)c(=O)c12 (stereo not drawn) [Compound 055, 3-[1H-benzimidazol-2-yl-(5-fluoro-2-hydroxy-phenyl)-methyl]-5-methyl-6-[4-(1-methyl-4-piperidyl)phenyl]-quinazolin-4-one; dihydrochloride]",1,2,100,10
"CN1CCC(n2cc(-c3ccc4c(c3)C(=O)N(C(c3nc5ccccc5[nH]3)c3cc(F)ccc3O)C4)cn2)CC1 (stereo not drawn) [Compound 060, 2-[1H-benzimidazol-2-yl-(5-fluoro-2-hydroxy-phenyl)-methyl]-6-[1-(1-methyl-4-piperidyl)pyrazol-4-yl]isoindolin-1-one; hydrochloride]",18,27,5500,110
"CN1CCC(c2ccc(-c3ccc4c(c3F)C(=O)N(C(c3nc5c(F)cccc5[nH]3)c3cc(F)ccc3O)C4)cc2F)CC1 (stereo not drawn) [Compound 081, 7-fluoro-2-[(4-fluoro-1H-benzimidazol-2-yl)-(5-fluoro-2-hydroxy-phenyl)methyl]-6-[3-fluoro-4-(1-methyl-4-piperidyl)phenyl]isoindolin-1-one; dihydrochloride]",0.8,6,210,–

# More lines, now with the values ahead:
IC50 [1] [nM],IC50 [2] [nM],"IC50 [3, 4] [nM]","IC50 [3, 5] [nM]",SMILES
2,6,2540,20,"CN1CC(c2ccc(-c3ccc4c(c3)C(=O)N(C(c3nc5ccccc5[nH]3)c3cc(F)ccc3O)C4)cc2)C1 (stereo not drawn) [Compound 049, 2-[1H-benzimidazol-2-yl-(5-fluoro-2-hydroxy-phenyl)methyl]-6-[4-(1-methylazetidin-3-yl)phenyl]isoindolin-1-one]"
8,12,1280,10,"CN1CC(Oc2ccc(-c3ccc4c(c3)C(=O)N(C(c3nc5ccccc5[nH]3)c3cc(F)ccc3O)C4)cc2)C1 (stereo not drawn) [Compound 056, 2-[1H-benzimidazol-2-yl-(5-fluoro-2-hydroxy-phenyl)methyl]-6-[4-(1-methylazetidin-3-yl)oxyphenyl]isoindolin-1-one;dihydrochloride]"
17,37,550,10,"O=C1c2cc(-c3ccc(-c4cn[nH]c4)cc3)ccc2CN1C(c1nc2ccccc2[nH]1)c1cc(F)ccc1O (stereo not drawn) [Compound 057, 2-[1H-benzimidazol-2-yl-(5-fluoro-2-hydroxy-phenyl)-methyl]-6-[4-(1H-pyrazol-4-yl)-phenyl]isoindolin-1-one]"
12,67,1420,20,"Cn1cc(-c2ccc(-c3ccc4c(c3)C(=O)N(C(c3nc5ccccc5[nH]3)c3cc(F)ccc3O)C4)cc2)cn1 (stereo not drawn) [Compound 058, 2-[1H-benzimidazol-2-yl-(5-fluoro-2-hydroxy-phenyl)-methyl]-6-[4-(1-methylpyrazol-4-yl)phenyl]isoindolin-1-one; dihydrochloride]"
13,> 100,790,10,"O=C1c2cc(-c3ccc(N4CCOCC4)cc3)ccc2CN1C(c1nc2ccccc2[nH]1)c1cc(F)ccc1O (stereo not drawn) [Compound 059, 2-(1H-benzimidazol-2-yl-(5-fluoro-2-hydroxy-phenyl)-methyl]-6-(4-morpholinopheny)-isoindolin-1-one; hydrochloride]"
11,69,790,20,"Nc1ccc(-c2ccc(-c3ccc4c(c3)C(=O)N(C(c3nc5ccccc5[nH]3)c3cc(F)ccc3O)C4)cc2)cn1 (stereo not drawn) [Compound 061, 6-[4-(6-amino-3-pyridyl)phenyl]-2-[1H-benzimidazol-2-yl-(5-fluoro-2-hydroxy-phenyl)-methyl]isoindolin-1-one; hydrochloride]"
0.7,3,650,20,"O=C1c2cc(-c3ccc(C4CCNCC4)cc3)ccc2CN1C(c1nc2ccccc2[nH]1)c1cc(F)ccc1O (stereo not drawn) [Compound 062, 2-[1H-benzimidazol-2-yl-(5-fluoro-2-hydroxy-phenyl)-methyl]-6-[4-(4-piperidyl)-phenyl]isoindolin-1-one; hydrochloride]"
